According to patent US20130190407A1, “CALCIUM RECEPTOR-ACTIVE MOLECULES” (NPS Pharmaceuticals, Inc., priority 1991, published 2013):
Like-named read-outs stand apart in the source and are kept apart here.

How the values were obtained:
[1] = system: parathyroidectomized rats; assay: Serum ionized Ca2+ in parathyroidectomized animals; format: in vivo, rat
Excerpt: To determine the primary target tissue upon which NPS R-467 acts to cause a hypocalcemic response, the parathyroid glands in rats were surgically removed. Animals receiving a total parathyroidectomy become hypocalcemic and are largely dependent upon dietary calcium to maintain serum Ca^2+ homeostasis.

Sprague-Dawley rats = assay: Serum/plasma Ca2+, PTH and calcitonin in rats in vivo; set-up: species or system rat; conditions: for ED50: Rattus norvegicus, po, normal adult rats
Protocol: Compounds shown to activate the bovine parathyroid cell calcium receptor in vitro were tested for hypocalcemic activity in vivo. Male Sprague-Dawley rats (200 g) were maintained on a low calcium diet for one week prior to receiving test substance or vehicle as control. Blood was collected from the tail vein three hours after the intra-peritoneal administration of NPS 467. […] Serum total calcium, albumin and phosphate were measured by techniques well known in the art.
Rats (male, Sprague-Dawley, 250-300 g) were fed standard rat chow and fasted overnight prior to the experiment. NPS R-467 was suspended in corn oil, and administered as a single oral dose through a gavage needle. Three hours later a sample of blood was taken from the tail vein and assessed for ionized Ca^2+ levels.

[2] = molecular target: T1, parathyroid cell calcium receptor (Homo sapiens, UniProt P41180); assay: [Ca2+]i (fura-2) in human parathyroid cells; format: cell-based; conditions: 20 μM
T1 construct: Dissociated parathyroid cells were prepared from a parathyroid adenoma obtained by surgery; endogenous in cells; host or cells: dissociated primary human parathyroid cells from patients with primary or uremic hyperparathyroidism
T1 sequence (P41180 20-1078): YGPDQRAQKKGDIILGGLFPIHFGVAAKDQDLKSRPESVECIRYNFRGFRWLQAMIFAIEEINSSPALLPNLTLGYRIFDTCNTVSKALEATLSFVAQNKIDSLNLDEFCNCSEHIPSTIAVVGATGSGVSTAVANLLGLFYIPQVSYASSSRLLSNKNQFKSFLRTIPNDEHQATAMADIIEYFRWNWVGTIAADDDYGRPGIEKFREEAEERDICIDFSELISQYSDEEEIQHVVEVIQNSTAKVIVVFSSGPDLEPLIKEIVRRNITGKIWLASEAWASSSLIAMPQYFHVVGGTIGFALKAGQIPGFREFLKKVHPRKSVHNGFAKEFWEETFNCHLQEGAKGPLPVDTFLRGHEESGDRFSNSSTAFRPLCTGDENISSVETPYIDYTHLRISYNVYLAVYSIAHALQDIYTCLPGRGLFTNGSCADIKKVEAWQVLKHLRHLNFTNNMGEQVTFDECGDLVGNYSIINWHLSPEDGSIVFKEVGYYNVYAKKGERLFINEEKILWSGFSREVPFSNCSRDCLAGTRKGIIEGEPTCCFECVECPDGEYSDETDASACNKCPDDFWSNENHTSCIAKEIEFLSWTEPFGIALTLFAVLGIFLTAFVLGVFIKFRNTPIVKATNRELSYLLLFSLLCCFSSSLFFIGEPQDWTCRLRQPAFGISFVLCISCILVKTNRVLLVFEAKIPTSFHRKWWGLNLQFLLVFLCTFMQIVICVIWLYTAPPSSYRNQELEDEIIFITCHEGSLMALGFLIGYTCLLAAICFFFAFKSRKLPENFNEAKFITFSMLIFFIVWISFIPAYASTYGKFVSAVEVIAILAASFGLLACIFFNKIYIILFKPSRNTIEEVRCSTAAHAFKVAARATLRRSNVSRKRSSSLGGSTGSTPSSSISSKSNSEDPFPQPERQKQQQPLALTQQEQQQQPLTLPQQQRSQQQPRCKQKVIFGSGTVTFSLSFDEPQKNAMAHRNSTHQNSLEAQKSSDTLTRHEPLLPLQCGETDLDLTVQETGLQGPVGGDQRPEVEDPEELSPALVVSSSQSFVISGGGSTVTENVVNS
Protocol: This section describes procedures used to obtain and treat parathyroid cells from calves and humans. […] Human parathyroid glands, were obtained from patients undergoing surgical removal of parathyroid tissue for primary or uremic hyperparathyroidism (uremic HPT), and were treated similarly to bovine tissue.
The cells were then pelleted, resuspended in the same buffer, but lacking the ester, and incubated a further 15 minutes at 37° C. The cells were subsequently washed twice with PCB containing 0.5 mM CaCl2 and 0.5% BSA and maintained at room temperature (about 20° C.) Immediately before use, the cells were diluted five-fold with prewarmed 0.5 mM CaCl2-PCB to obtain a final BSA concentration of 0.1%. The concentration of cells in the cuvette used for fluorescence recording was 1−2×10^6/ml.
The fluorescence of indicator-loaded cells was measured at 37° C. in a spectrofluorimeter (Biomedical Instrumentation Group, University of Pennsylvania, Philadelphia, Pa.) equipped with a thermostated cuvette holder and magnetic stirrer using excitation and emission wavelengths of 340 and 510 nm, respectively. […] To correct the calibration for dye leakage, cells were placed in the cuvette and stirred at 37° C. for 2-3 minutes. The cell suspension was then removed, the cells pelleted, and the supernatant returned to a clean cuvette. […] This estimate was subtracted from the apparent Fmin.

C-cell calcium receptor = molecular target: T2, C-cell calcium receptor (Rattus norvegicus, UniProt P48442); format: cell-based
T2 construct: cultured cell lines expressing the C-cell phenotype (e.g., rat medullary thyroid carcinoma cells; rMTC 6-23 cells); host or cells: rMTC 6-23 rat medullary thyroid carcinoma cells
T2 sequence (P48442 20-1079): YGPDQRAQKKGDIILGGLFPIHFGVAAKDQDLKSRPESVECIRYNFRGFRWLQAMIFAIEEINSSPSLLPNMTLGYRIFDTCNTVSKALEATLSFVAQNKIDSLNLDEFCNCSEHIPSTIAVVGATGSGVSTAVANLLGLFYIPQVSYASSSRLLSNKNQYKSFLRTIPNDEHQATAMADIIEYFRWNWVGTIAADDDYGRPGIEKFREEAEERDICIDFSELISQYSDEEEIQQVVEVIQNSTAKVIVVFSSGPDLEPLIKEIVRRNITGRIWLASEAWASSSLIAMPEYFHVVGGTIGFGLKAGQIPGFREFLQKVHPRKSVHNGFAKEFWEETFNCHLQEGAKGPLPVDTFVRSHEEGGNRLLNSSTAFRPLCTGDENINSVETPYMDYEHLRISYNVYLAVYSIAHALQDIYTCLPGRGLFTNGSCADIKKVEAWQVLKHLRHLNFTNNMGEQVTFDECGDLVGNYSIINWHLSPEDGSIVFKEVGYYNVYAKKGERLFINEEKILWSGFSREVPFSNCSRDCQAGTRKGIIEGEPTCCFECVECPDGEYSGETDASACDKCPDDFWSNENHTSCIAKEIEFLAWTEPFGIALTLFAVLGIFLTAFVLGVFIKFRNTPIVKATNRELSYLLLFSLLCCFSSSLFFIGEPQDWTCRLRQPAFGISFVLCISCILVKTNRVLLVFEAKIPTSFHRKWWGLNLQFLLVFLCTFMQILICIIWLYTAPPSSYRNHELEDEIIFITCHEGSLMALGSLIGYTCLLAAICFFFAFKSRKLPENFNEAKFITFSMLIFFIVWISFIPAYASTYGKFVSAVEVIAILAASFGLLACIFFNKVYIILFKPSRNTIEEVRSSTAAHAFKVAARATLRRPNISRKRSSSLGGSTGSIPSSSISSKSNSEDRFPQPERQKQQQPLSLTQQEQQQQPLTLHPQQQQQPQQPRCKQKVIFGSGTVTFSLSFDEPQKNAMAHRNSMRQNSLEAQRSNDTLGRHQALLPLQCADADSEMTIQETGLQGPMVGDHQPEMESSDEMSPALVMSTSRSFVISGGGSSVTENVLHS

COc1cccc([C@@H](C)NCCCc2ccccc2)c1 (single isomer, unassigned) [NPS R-467]
change in serum ionized Ca2+ ([1]; 10 mg/kg i.p., over 6 hours): did not cause any change in serum ionized Ca^2+ levels | potency in lowering serum Ca2+ in vivo (Sprague-Dawley rats; 5 mg/kg body weight): more potent than the S-isomer in lowering serum Ca^2+ in vivo | serum ionized Ca2+ (Sprague-Dawley rats; single oral dose in corn oil, three hours): dose-dependent reduction in serum levels of ionized Ca^2+

COc1cccc([C@@H](C)NCCCc2ccccc2Cl)c1 [NPS R-568, (R)-(+)-N-[3-(2-chlorophenyl)propyl]-α-methyl-3-methoxybenzylamine]
hypocalcemic response ([1]; oral administration): fails to elicit a hypocalcemic response | ED50 (Sprague-Dawley rats; read-out: ED50 for depression of plasma Ca2+): 8 mg/kg | ED50 (Sprague-Dawley rats; read-out: ED50 for depression of plasma PTH): 1 mg/kg | ED50 (Sprague-Dawley rats; read-out: ED50 for stimulation of calcitonin): 40 mg/kg

NC[C@@H]1O[C@H](O[C@H]2[C@@H](O)[C@H](O[C@@H]3[C@@H](O)[C@H](N)C[C@H](N)[C@H]3O[C@H]3O[C@H](CN)[C@@H](O)[C@H](O)[C@H]3N)O[C@@H]2CO)[C@H](N)[C@@H](O)[C@@H]1O [Neomycin B, neomycin B]
increase in [Ca2+]i [2]: large increase | effect on basal [Ca2+]i (C-cell calcium receptor): without effect | EC50 C-CELL (C-cell calcium receptor; Table 6, rMTC 6-23 cells): inactive
